Data as given in the supplement of paper PMC10307832.

What was measured:
Assay in all cases: relative viability (nuclei count vs DMSO), 5 days (fraction); higher = more cells survive
[1] = compound: CC1=C(C(=O)N2C=CSC2=N1)CCN3CCC(=C(C4=CC=CC=C4)C5=CC=C(C=C5)F)CC3 + CC(=O)c1c(C)c2cnc(Nc3ccc(N4CCNCC4)cn3)nc2n(C2CCCC2)c1=O [Palbociclib] (partner 0.5 µM)
In short: (§1)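 Relative viability divides the nuclei count in treated wells by that in vehicle wells. Lung cancer cell lines were seeded in 1536-well plates, dosed by pin tool the next day, and fixed and stained after 5 days in one step with final 0.05% Triton X-100, 1% formaldehyde and 1 ug/ml Hoechst. Dosing was a single drug or a fixed anchor-drug dose plus five library-drug doses (not always all listed) in √10 steps, and values are medians of duplicate plates imaged at 4×.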

[2] = compound: CC1=C(C(=O)N2C=CSC2=N1)CCN3CCC(=C(C4=CC=CC=C4)C5=CC=C(C=C5)F)CC3 + CC(C)C[C@H](NC(=O)[C@H](Cc1ccccc1)NC(=O)c1cnccn1)B(O)O [Bortezomib] (partner 0.002 µM)
In short: as §1

[3] = compound: CC1=C(C(=O)N2C=CSC2=N1)CCN3CCC(=C(C4=CC=CC=C4)C5=CC=C(C=C5)F)CC3 + COc1cc2c(Oc3ccc(NC(=O)C4(C(=O)Nc5ccc(F)cc5)CC4)cc3F)ccnc2cc1OCCCN1CCOCC1 [Foretinib] (partner 0.25 µM)
In short: as §1

[4] = compound: CC1=C(C(=O)N2C=CSC2=N1)CCN3CCC(=C(C4=CC=CC=C4)C5=CC=C(C=C5)F)CC3 + CS(=O)(=O)N1CCN(Cc2cc3nc(-c4cccc5[nH]ncc45)nc(N4CCOCC4)c3s2)CC1 [Pictilisib] (partner 1 µM)
In short: as §1

Row | Cell Line | relative viability ([1]; first compound 0.08 µM) | relative viability ([1]; first compound 0.253 µM) | relative viability ([1]; first compound 0.8 µM) | relative viability ([1]; first compound 2.53 µM) | relative viability ([1]; first compound 8 µM) | relative viability ([2]; first compound 0.08 µM) | relative viability ([2]; first compound 0.253 µM) | relative viability ([2]; first compound 0.8 µM) | relative viability ([2]; first compound 2.53 µM) | relative viability ([2]; first compound 8 µM) | relative viability ([3]; first compound 0.08 µM) | relative viability ([3]; first compound 0.253 µM) | relative viability ([3]; first compound 0.8 µM) | relative viability ([3]; first compound 2.53 µM) | relative viability ([3]; first compound 8 µM) | relative viability ([4]; first compound 0.08 µM) | relative viability ([4]; first compound 0.253 µM) | relative viability ([4]; first compound 0.8 µM) | relative viability ([4]; first compound 2.53 µM) | relative viability ([4]; first compound 8 µM)
1 | HCC-78 | 0.336 | 0.462 | 0.484 | 0.519 | 0.349 | 0.458 | 0.616 | 0.552 | 0.447 | 0.405 | 0.547 | 0.522 | 0.513 | 0.534 | 0.522 | 0.216 | 0.206 | 0.226 | 0.212 | 0.273
2 | HCC-366 | 0.392 | 0.394 | 0.458 | 0.337 | 0.277 |  | 1.14 | 1.18 | 1.04 | 0.308 | 0.935 | 1 | 1.01 | 1 | 0.662 | 0.128 | 0.152 | 0.194 | 0.129 | 0.121
3 | HCC-827 | 0.483 | 0.496 | 0.491 | 0.486 | 0.455 | 0.975 | 0.843 | 1.01 | 1.11 | 0.987 | 1.11 | 1.08 | 1.05 | 1.13 | 1.01 | 0.829 | 1.07 | 1.13 | 0.924 | 0.645
4 | HOP-62 | 0.439 | 0.479 | 0.457 | 0.411 | 0.288 | 0.731 | 0.628 | 1.03 | 0.922 | 0.323 | 1.17 | 0.995 | 1.14 | 1.06 | 0.705 | 0.891 | 0.72 | 0.827 | 0.745 | 0.611
5 | IA-LM |  |  |  |  |  | 0.621 | 0.757 | 0.711 | 0.843 | 0.63 | 1.1 | 1.06 | 1.24 | 1.22 | 0.691 |  | 0.354 | 0.211 | 0.345 | 0.234
6 | LC-2-ad | 0.463 | 0.459 | 0.475 | 0.473 | 0.458 | 1.05 | 0.799 | 1.03 | 1.22 | 0.827 | 0.971 | 1.09 | 0.892 | 1.12 | 0.761 | 0.418 | 0.369 | 0.513 | 0.646 | 0.427
7 | LK-2 | 0.766 | 0.607 | 0.822 | 0.791 | 0.575 |  |  |  |  |  | 1.35 | 1.07 | 1.18 | 1.33 | 0.794 | 0.611 | 0.66 | 0.605 | 0.451 | 0.539
8 | NCI-H358 | 0.138 | 0.136 | 0.145 | 0.162 | 0.128 |  |  |  |  |  | 0.568 | 0.665 | 0.695 | 0.87 | 0.483 | 0.301 | 0.338 | 0.326 | 0.38 | 0.305
9 | NCI-H522 | 1.08 | 1.09 | 0.809 | 0.977 | 0.933 |  |  |  |  |  |  |  |  |  |  |  |  |  |  | 
10 | NCI-H596 |  |  |  |  |  | 1.09 | 1.02 | 0.903 | 0.887 | 0.989 | 0.797 | 0.936 | 0.885 | 1.1 | 0.519 | 0.435 | 0.418 | 0.38 | 0.369 | 0.386
11 | NCI-H1299 |  |  |  |  |  | 1.07 | 1.04 | 1.04 | 1.02 | 0.702 | 1.19 | 1.14 | 1.13 | 1.14 | 1.02 | 1 | 0.906 | 0.754 | 1.05 | 0.575
12 | NCI-H1395 | 0.623 | 0.656 | 0.551 | 0.616 | 0.61 |  |  |  |  |  | 1.07 | 1.08 | 0.972 | 0.97 | 1.06 | 0.772 | 0.641 | 0.531 | 0.572 | 0.629
13 | NCI-H1563 |  |  |  |  |  | 0.928 | 0.957 | 0.852 | 0.827 | 0.722 | 0.943 | 0.87 | 0.907 | 0.946 | 0.769 | 0.542 | 0.684 | 0.66 | 0.633 | 0.637
14 | NCI-H1648 | 0.254 | 0.316 | 0.22 | 0.326 | 0.249 |  |  |  |  |  |  |  |  |  |  |  |  |  |  | 
15 | NCI-H1703 |  |  |  |  |  | 0.262 | 0.316 | 0.256 | 0.359 | 0.263 | 0.4 | 0.415 | 0.321 | 0.363 | 0.319 | 0.298 | 0.248 | 0.266 | 0.295 | 0.248
16 | NCI-H1792 | 0.353 | 0.663 | 0.649 | 0.564 | 0.271 | 0.742 | 0.614 | 0.976 | 0.77 | 0.438 |  |  |  |  |  | 0.241 | 0.257 | 0.251 | 0.232 | 0.308
17 | NCI-H1793 | 0.212 | 0.311 | 0.272 | 0.345 | 0.318 |  |  |  |  |  | 0.601 | 0.866 | 0.795 | 0.624 | 0.44 | 0.368 | 0.283 | 0.249 | 0.341 | 0.23
18 | NCI-H1944 | 0.305 | 0.31 | 0.341 | 0.29 | 0.259 |  |  |  |  |  | 0.8 | 1.12 | 0.891 | 0.862 | 0.539 | 0.369 | 0.336 | 0.343 | 0.333 | 0.37
19 | NCI-H2170 | 0.396 | 0.405 | 0.36 | 0.37 | 0.344 |  |  |  |  |  | 0.874 | 1.03 | 1.11 | 1.06 | 0.674 | 0.295 | 0.287 | 0.256 | 0.304 | 0.338
20 | NCI-H2342 | 0.48 | 0.487 | 0.548 | 0.519 | 0.528 |  |  |  |  |  | 0.884 | 1.02 | 0.948 | 1.09 | 0.857 |  |  |  |  | 
21 | SK-MES-1 | 0.299 | 0.288 | 0.294 | 0.336 | 0.305 |  |  |  |  |  | 0.979 | 1.07 | 0.928 | 0.731 | 0.864 | 0.386 | 0.396 | 0.357 | 0.33 | 0.261
22 | SW 900 | 0.524 | 0.514 | 0.543 | 0.58 | 0.526 |  |  |  |  |  | 0.833 | 0.935 | 0.951 | 0.988 | 0.566 |  |  |  |  | 
